# Patent publication US20100203021A1, “PROVISION OF NEW CARDIOMYOCYTE PROGENITOR CELLS AND CARDIOMYOCYTES DERIVED THEREFROM” (LEAD PHARMA CEL MODELS IP B.V., priority 2007, published 2010)
# B1: BMP: bone morphogenetic protein; 25 ng/ml BMP-6 in FIG. 3A (protein, UniProt P22004 375-513, looked up)
# Bone morphogenetic protein 6: SASSRRRQQSRNRSTQSQDVARVSSASDYNSSELKTACRKHELYVSFQDLGWQDWIIAPKGYAANYCDGECSFPLNAHMNATNHAIVQTLVHLMNPEYVPKPCCAPTKLNAISVLYFDDNSNVILKKYRNMVVRACGCH
# Columns and labels:
# Type in all cases: cell-based, human
# hCMPCs = assay: Differentiation of hCMPCs into cardiomyocytes (5-azacytidine, ascorbic acid, TGFβ); RT-PCR, Western blot, α-actinin immunofluorescence
# Method: For a cell type to be suitable for cardiomyocyte replacement therapies, it should not only be able to proliferate but also differentiate efficiently into cardiomyocytes. To study the capacity of the hCMPCs of the invention to differentiate into cardiomyocytes, cells were plated at 10^5 per cm^2 in differentiation medium containing ascorbic acid and treated with 5-azacytidine (which is a demethylating agent).
# (§1) To determine whether CMPCs of the invention were capable of responding to TGFβ ligand we examined their ability to phosphorylate smad proteins. TGFβ exerts its effect by binding to a complex of type I and type II receptor and phosphorylating Smads^30. TGFβ phosphorylates Smad2 while BMP phosphorylates Smad1. […] To examine the effect of TGFβ on cardiomyocyte differentiation, hCMPCs were plated at 2×10^4 cells per cm^2 in differentiation medium, treated with 5-aza for 24 hours and cultured for up to 3 weeks in differentiation medium supplemented with TGFβ (1 ng/ml).
# To induce differentiation, cells were treated with 5 μM 5′-azacytidine (Sigma) for 72 hours in differentiation medium (Iscove's Modified Dulbecco's Medium/HamsF12 (1:1) (Gibco)) supplemented with L-Glutamine (Gibco), 2% horse serum, non-essential amino acids, Insulin-Transferrin-Selenium supplement, and 10^−4 M Ascorbic Acid (Sigma)). After induction, the medium was changed every 3 days.
# For TGFβ treatment, CMPCs were cultured in differentiation medium, stimulated with 5 μM 5′-azacytidine (Sigma) and 1 ng/ml TGFβ1 (Sigma) added 24 hours later. The medium was changed every 3 days.
# RNA was isolated using of Trizol (Invitrogen, Breda, The Netherlands) and reverse transcribed using oligo-dT Superscript 3 (Invitrogen). The PCR reactions started with 2 min at 94° C. followed by 35 cycles of: 15 s at 94° C., 30 s at 55° C. and 45 s at 72° C. Products were analyzed on ethidium bromide-stained 1% agarose gel. β-tubulin or β-actin were used as RNA input control.
# Coverslips with cultured cells were rinsed in serum free medium, fixed in methanol (−20° C.) or 4% paraformaldehyde, washed with PBS and permeabilized with 0.2% Triton X-100/PBS. Non-specific binding of antibodies was blocked with 2% bovine serum albumin (BSA). Incubation with primary antibodies was performed overnight in PBS/10% normal goat serum (NGS). Antibodies used recognized GATA-4 (Santa Cruz), Islets-1 (Hybridoma Bank), Cx40 (Chemicon), Cx43 (Zymed), Cx45 (kindly provided by Dr. T. H. Steinberg, Washington University, St. Louis, USA), α-actinin (Sigma), Troponin I (Chemicon) desmin (Sanbio), titin (Sigma), MLC2v (Alexis), β-MHC (kindly provided by Dr. A. F. M. Moorman, AMC Amsterdam, Netherlands), N-cadherin (Sigma) and ZO-1 (Zymed). Immunolabeling was performed using Texas Red (TR)- or fluorescein isothiocyanate (FITC)-conjugated secondary antibodies (Jackson Laboratories). All incubation steps were performed at room temperature and in between all incubation steps, cells were washed with PBS. Finally, coverslips were mounted in Vectashield (Vector Laboratories) and examined with a Nikon Optiphot-2 light microscope equipped for epifluorescence.
# Western blot analysis was performed as described previously^35. Detection was by ECL (Amersham). […]
# Smad2 = assay: Western blot for TGFβ induced Smad2 phosphorylation in CMPCs; details: 1 ng/ml TGFβ, Western blot α-pSmad2
# Method: as §1
# (§2) FIG. 3: (A) Western blot analysis on protein samples isolated from CMPCs stimulated without or with 1 ng/ml TGFβ or 25 ng/ml BMP-6 and probed with α-pSmad1 or α-pSmad2. Asterisk indicates an non-specific band showing equal loading. B) Semi-quantitative RT-PCR on RNA isolated from CMPCs stimulated without or with 1 ng/ml TGFβ for the indicated days probed for the expression of the early cardiac transcription factors Nkx2.5 and Mef2C, the contractile proteins cardiac actin, cardiac Troponin I, desmin, ANP and MLC2v. β-actin was used as a control for equal RNA input. C) Western blot analysis on protein samples from CMPCs stimulated without or with 1 ng/ml TGF for the indicated days, probed for Nkx2.5 or α-actinin. […] Counterstaining of nuclei was performed using DAPI. Bar=50 μm. […]
# CMPC = assay: In vitro angiogenesis assay: tube formation by CMPC on Matrigel/ECMatrix; details: CMPCs on Matrigel, addition of VEGF
# Source text: We have also established differentiation of CMPCs of the invention into tubular vascular structures (angiogenesis) on Matrigel, said “tubular vascular structures” which are sometimes also denoted herein as “tubular structures” containing aligned endothelial cells encircled by smooth muscle cells. […] The formation of these newly formed capillary tubes can be visualised for example by staining α-SMA (a smooth muscle actin) on smooth muscle cells and/or PECAM-1 (platelet endothelial cell adhesion molecule-1, CD31) on endothelial cells (see also appended Example 8). Antibodies which can be used in this regard are exemplified in the following: SMA antibody: AB5694 from abcam, clone 1A4, Sigma, cat. Number: A2547, or Dako, cat. Number M08510. Endothelial cells: PECAM-1 clone 9G11 or CD34 clone Qbend/10 form Biogenex or CD31 from Sigma and ve-cadherin from Santa Cruz.
# In this case the assay is set up in order to test the influence of diverse compounds (i.e. chemical compounds or miRNA etc.) on tube formation by CMPC (cardio mycocyte progenitor cells). In order for these cells to form tubes these cells have to differentiate into smooth muscle cells and endothelial cells.
# The formation of these newly formed capillary tubes is visualised by staining α-SMA (α smooth muscle actin) on smooth muscle cells and PECAM-1 (platelet endothelial cell adhesion molecule-1, CD31) on endothelial cells. […]
# Smad1 = assay: Western blot for BMP induced Smad1 phosphorylation in CMPCs; details: 25 ng/ml BMP-6, Western blot α-pSmad1
# Method: as §1, §2
molecule,measurement,setting,value
"Nc1ncn([C@@H]2O[C@H](CO)[C@@H](O)[C@H]2O)c(=O)n1 [5-azacytidine, reference compound]",differentiation of hCMPCs into cardiomyocytes (beating areas),"hCMPCs; hCMPCs 10^5 per cm^2, differentiation medium with ascorbic acid, three weeks after treatment",spontaneously beating areas were observed
"TGFβ: TGFβ1 (Sigma), 1 ng/ml, added to differentiation medium",Smad2 phosphorylation,Smad2,TGFβ induced Smad2 phosphorylation
same,expression of Nkx2.5 and α-actinin (Western blot),"hCMPCs; CMPCs, 7 days of culture in the presence of TGFβ 1 ng/ml",increased dramatically
same,percentage of α-actinin positive cells,"hCMPCs; hCMPCs, 5-aza 24 hours, then TGFβ 1 ng/ml, immunofluorescent staining",~100%
same,"expression of cardiac genes Troponin-I, ANP, cardiac-actin and desmin (RT-PCR)","hCMPCs; hCMPCs, 5-aza, TGFβ 1 ng/ml, undetectable in its absence",already observed 7 days after the initiation of differentiation
same,MLC2v expression (RT-PCR),"hCMPCs; hCMPCs, 5-aza, TGFβ 1 ng/ml, without TGFβ only after 3 weeks",already present after two weeks
VEGF,formation of capillary tubes,CMPC,can be induced
B1,Smad1 phosphorylation,Smad1,clear BMP induced Smad1 phosphorylation
